Experimental data from paper PMC5355235, “FLT3 activating mutations display differential sensitivity to multiple tyrosine kinase inhibitors” (Oncotarget, 2017).
Read-outs that look alike come from different tables or passages of the source.

Columns and labels:
[1] = system: BaF3 FLT3 D835G mutant cells; test: MTT growth inhibition assay, BaF3 FLT3 D835G cells; format: cell-based; settings: Mus musculus, no IL-3, 48 h, read-out: Proliferation IC50
Protocol: (§1) Figure 1 Growth of AL mutants in the presence of FLT3 TKI The BaF3 AL mutants were grown in the absence of IL-3 and analyzed by treatment in increasing concentrations of FLT3 TKI for 48 hours, after which growth inhibition was assessed using the MTT assay. Means are representative of at least three independent experiments.
(§2) The cells were grown in the absence of IL3 and analyzed by treatment in increasing concentrations of FLT3 TKI for 48 hours, after which growth inhibition was assessed using the MTT assay. Each experiment was performed at least three times and representative results are shown.
(§3) Based on Trypan Blue exclusion, 2 × 10^4 viable cells were seeded in quadruplicate in a 96-well microtiter plate in the presence or absence of inhibitor for 48 h. The effect of drug activity on cell viability was measured using the 3-(4,5-Dimethylthiazol-2-yl)-2,5-diphenyltetrazolium bromide (MTT) assay according to the manufacturer's instructions (Roche Applied Science, Indianapolis, IN, USA). Following treatment, cells were incubated for 4 h in MTT followed by dissolution in solubilization buffer overnight. Absorbance was measured at 570 nm on a Bio-Rad plate reader (Hercules, CA, USA). […] Results shown are presented as means and are representative of at least three independent experiments.

[2] = system: BaF3 FLT3 I836S mutant cells; test: MTT growth inhibition assay, BaF3 FLT3 I836S cells; format: cell-based; settings: Mus musculus, read-out: Proliferation IC50
Protocol: as §1, §2, §3

BaF3/ITD cells = test: MTT growth inhibition assay, BaF3 FLT3-ITD cells; format: cell-based; settings: Mus musculus, no IL-3, 48 h, read-out: Proliferation IC50
Protocol: as §1, §2, §3

[3] = system: BaF3 FLT3 840G+S mutant cells; test: MTT growth inhibition assay, BaF3 FLT3 840G+S cells; format: cell-based; settings: Mus musculus, no IL-3, 48 h, read-out: Proliferation IC50
Protocol: as §1, §2, §3

[4] = system: BaF3 FLT3 I836L+D mutant cells; test: MTT growth inhibition assay, BaF3 FLT3 I836L+D cells; format: cell-based; settings: Mus musculus, no IL-3, 48 h, read-out: Proliferation IC50
Protocol: as §1, §2, §3

[5] = system: BaF3 FLT3 D835Y mutant cells; test: MTT growth inhibition assay, BaF3 FLT3 D835Y cells; format: cell-based; settings: Mus musculus, no IL-3, 48 h, read-out: Proliferation IC50
Protocol: as §1, §2, §3

[6] = system: BaF3 FLT3 D593D mutant cells; test: MTT growth inhibition assay, BaF3 FLT3 D593D cells; format: cell-based; settings: Mus musculus, no IL-3, 48 h, read-out: Proliferation IC50
Protocol: as §1, §2, §3

[7] = system: BaF3 FLT3 D835L+K mutant cells; test: MTT growth inhibition assay, BaF3 FLT3 D835L+K cells; format: cell-based; settings: Mus musculus, no IL-3, 48 h, read-out: Proliferation IC50
Protocol: as §1, §2, §3

[8] = system: BaF3 FLT3 D835N mutant cells; test: MTT growth inhibition assay, BaF3 FLT3 D835N cells; format: cell-based; settings: Mus musculus, no IL-3, 48 h, read-out: Proliferation IC50
Protocol: as §1, §2, §3

[9] = system: BaF3 FLT3 I836T mutant cells; test: MTT growth inhibition assay, BaF3 FLT3 I836T cells; format: cell-based; settings: Mus musculus, no IL-3, 48 h, read-out: Proliferation IC50
Protocol: as §1, §2, §3

[10] = system: BaF3 FLT3 D835A mutant cells; test: MTT growth inhibition assay, BaF3 FLT3 D835A cells; format: cell-based; settings: Mus musculus, read-out: Proliferation IC50
Protocol: as §1, §2, §3

BaF3 FLT3 D835Y cells = test: Engraftment of BaF3 D835Y luciferase cells in BALB/c mice, bioluminescence imaging; format: in vivo; settings: 20 mg/kg twice daily subcutaneous, day 5 to day 9
Protocol: On day 5 following transplantation, the level of engraftment was assessed by imaging mice for bioluminescence on an IVIS Spectrum imager. […] This experiment was repeated three times.
Cells were sorted for GFP and CD135 expression on a FACS AriaII cytometer using FACSDiva software. For engraftment, 2 ×10^6 cells were injected via tail vein into BALB/c mice (Jackson Laboratories, Bar Harbor, ME, USA) (day 0). […] [36, 37] […] Mice were imaged by intraperitoneal injection of luciferin (3 mg) and visualizing on an IVIS Spectrum imager (Caliper LifeSciences, Hopkinton, MA, USA) using Living Image software for analysis on day 5 following inoculation to monitor engraftment and on day 9 to assess drug effect. All animal procedures were conducted in accordance with the policy of the Johns Hopkins University School of Medicine Animal Care and Use Committee.

FLT3/ITD = FLT3/ITD autophosphorylation and signaling pathways, Western blot; format: cell-based; settings: FLT3/ITD cells, 1 h, concentration-dependent
Protocol: (§4) Activated FLT3 expression was measured by performing immunoprecipitation, SDS-PAGE and Western blotting as previously described. Specifically, 10^7 cells were washed in medium and treated with inhibitor for 1 h followed by stimulation with 25 ng/ml of FLT3 ligand for 15 minutes where indicated. Cells were washed twice with ice-cold PBS and lysed in 300 µl of NP-40 lysis buffer (150 mM NaCl, 20 mM TrisHCl (pH7.4), 10% glycerol, 1% NP-40, 10 mM EDTA, 100 mM NaF) with 2 mM Na3VO4 and protease inhibitors (Complete Tablets, Roche, Mannheim, Germany) at 4°C for 30 m. Cell lysate was harvested by centrifugation at 13,000 × g for 30 m at 4°C. FLT3 S-18 antibody was incubated with 500 µg lysate overnight at 4°C followed by immunoprecipitation with protein A-agarose beads for 2 h. Beads were washed once in Tris buffered saline with 1% Tween-20 (TBST) and twice in TBS. Samples were boiled in sodium dodecyl sulfate (SDS) sample buffer prior to separating in a 8% SDS-polyacrylamide gel (SDS-PAGE). Proteins were transferred to a polyvinyl diflouride (PVDF) membrane (Millipore, Bedford, MA, USA) and detected by 4G10 phosphotyrosine antibody and anti-FLT3 S-18 antibody. FLT3 was visualized using the Odyssey Infra Red Imaging System from Li-Cor (Lincoln, NE, USA) using AlexaFluor 680 goat anti-mouse and AlexaFluor 800 goat anti-rabbit antibodies. Phosphorylation of the FLT3 downstream signaling mediators, STAT5, AKT and MAP kinase was investigated by loading 50 µg of whole cell lysate and probing with the indicated antibodies. The membrane was washed and incubated in goat anti-rabbit secondary antibody conjugated to horseradish peroxidase followed by enhanced chemiluminescence (ECL). The membrane was subsequently stripped in 200 mM glycine buffer, pH 2.5 with 0.1% Tween-20 and reprobed for STAT5, AKT and MAP kinase expression using the respective antibodies.

all FLT3 AL mutants = settings: read-out: FLT3 autophosphorylation IC50, BaF3 cells, 1 h treatment, Western blot
Protocol: as §4, with “Phosphorylation of the FLT3 downstream signaling mediators, STAT5, AKT and MAP kinase was investigated by loading 50 µg of whole cell lysate and probing with the indicated antibodies. The membrane was washed and incubated in goat anti-rabbit secondary antibody conjugated to horseradish peroxidase followed by enhanced chemiluminescence (ECL). The membrane was subsequently stripped in 200 mM glycine buffer, pH 2.5 with 0.1% Tween-20 and reprobed for STAT5, AKT and MAP kinase expression using the respective antibodies.” left out

[11] = BaF3 FLT3 I836S, no IL-3, 48 h, MTT
[12] = BaF3 FLT3 D835A, no IL-3, 48 h, MTT

Row | IC50 [1] | IC50 [2, 11] | IC50 (BaF3/ITD cells) | IC50 [3] | IC50 [4] | IC50 [5] | IC50 [6] | IC50 [7] | IC50 [8] | IC50 [9] | IC50 [10, 12] | Structure (SMILES) | Leukemic burden (bioluminescence) on day 9 (BaF3 FLT3 D835Y cells) | Inhibition of FLT3 autophosphorylation and phosphorylation of STAT5, AKT and Map kinase (FLT3/ITD) | IC50 ([2]; BaF3, 48 h) | IC50 (all FLT3 AL mutants) | IC50 ([10]; BaF3, 48 h)
1 | 56 nM | > 200 nM | 41 nM | 35 nM | > 200 nM | > 200 nM | > 200 nM | > 200 nM | 58.3 nM | 31.9 nM | 62 nM | O=C(c1ccc(/C=C/c2n[nH]c3ccccc23)cc1)N1CCNCC1 [KW2449] |  |  |  |  | 
2 | 8.6 nM | > 200 nM | 2.4 nM | 2.1 nM | > 200 nM | > 100 nM | > 200 nM | > 200 nM | 10.3 nM | 5.3 nM | > 200 nM | Cc1ccc(F)c(NC(=O)Nc2ccc(-c3cccc4[nH]nc(N)c34)cc2)c1 [Linifanib] |  |  |  |  | 
3 |  |  |  | 12 nM |  |  |  |  |  |  |  | CO[C@@H]1[C@H](N(C)C(=O)c2ccccc2)C[C@H]2O[C@]1(C)n1c3ccccc3c3c4c(c5c6ccccc6n2c5c31)C(=O)NC4 [Midostaurin] |  |  |  |  | 

Row | Structure (SMILES) | IC50 [1] | IC50 [2, 11] | IC50 (BaF3/ITD cells) | IC50 [3] | IC50 [4] | IC50 [5] | IC50 [6] | IC50 [7] | IC50 [8] | IC50 [9] | IC50 [10, 12] | Leukemic burden (bioluminescence) on day 9 (BaF3 FLT3 D835Y cells) | Inhibition of FLT3 autophosphorylation and phosphorylation of STAT5, AKT and Map kinase (FLT3/ITD) | IC50 ([2]; BaF3, 48 h) | IC50 (all FLT3 AL mutants) | IC50 ([10]; BaF3, 48 h)
4 | C[C@]12O[C@H](C[C@]1(O)CO)n1c3ccccc3c3c4c(c5c6ccccc6n2c5c31)CNC4=O [Lestaurtinib] | 6 nM |  | 8.6 nM | 8 nM | 2.1 nM | 9.8 nM | 8 nM | 2.1 nM | 7.6 nM | 13.4 nM |  | greatly reduced | inhibited FLT3 autophosphorylation | 15 nM | ≤ 5 nM | 5 nM
